Among the data in patent US20260049085A1, “CYCLIC COMPOUNDS AND METHODS OF USING SAME” (SCHRÖDINGER, INC., priority 2022, published 2026) are IC50 values, retold here.

The term pIC50 denotes the negative decadic logarithm of the IC50, by convention in mol/L. Higher therefore signals a small IC50.

For this experiment, the target named is T1, full-length MALT1 protein His-MALT1(1-824) (Homo sapiens, UniProt Q9UDY8).
T1 construct: full-length MALT1 protein His-MALT1(1-824); His (N); made in house; host or cells: baculovirus-infected insect cells
T1 sequence (Q9UDY8 1-824): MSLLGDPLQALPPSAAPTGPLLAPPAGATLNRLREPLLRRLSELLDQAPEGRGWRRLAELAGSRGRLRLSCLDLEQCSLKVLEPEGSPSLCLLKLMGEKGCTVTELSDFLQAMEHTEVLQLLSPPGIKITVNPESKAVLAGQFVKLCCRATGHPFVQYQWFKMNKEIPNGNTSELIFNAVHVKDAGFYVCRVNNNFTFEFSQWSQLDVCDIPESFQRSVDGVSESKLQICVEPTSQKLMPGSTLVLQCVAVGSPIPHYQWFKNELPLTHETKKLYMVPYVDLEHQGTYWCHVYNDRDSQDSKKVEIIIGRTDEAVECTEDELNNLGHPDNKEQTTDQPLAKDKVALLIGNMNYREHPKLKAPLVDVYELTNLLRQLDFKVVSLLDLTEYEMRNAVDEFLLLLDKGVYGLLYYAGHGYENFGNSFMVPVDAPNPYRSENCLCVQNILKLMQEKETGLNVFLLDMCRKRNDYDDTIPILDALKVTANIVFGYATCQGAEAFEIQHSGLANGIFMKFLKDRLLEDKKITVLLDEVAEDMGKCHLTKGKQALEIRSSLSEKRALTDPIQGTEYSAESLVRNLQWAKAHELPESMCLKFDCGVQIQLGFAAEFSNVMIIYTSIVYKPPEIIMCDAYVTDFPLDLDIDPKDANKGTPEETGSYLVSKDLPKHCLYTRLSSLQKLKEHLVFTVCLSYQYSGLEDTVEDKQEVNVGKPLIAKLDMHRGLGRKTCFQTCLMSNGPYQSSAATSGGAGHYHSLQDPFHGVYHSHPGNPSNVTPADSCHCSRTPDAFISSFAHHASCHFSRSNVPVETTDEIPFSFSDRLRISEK
Kind of experiment: MALT1 protease assay (Ac-LRSR-AMC tetrapeptide substrate, fluorescence). To be noted: 1 nM MALT1, 25 μM Ac-LRSR-AMC, 2 h pre-incubation, 8 hr incubation at RT. In kind it is biochemical. The procedure, abridged: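 Full-length His-MALT1(1-824) from baculovirus-infected insect cells (1 nM) was pre-incubated 2 h at RT with compounds (0.1% DMSO), then 25 μM Ac-LRSR-AMC added in 50 mM Tris pH 7.5, 600 mM sodium citrate, 1 mM DTT, 1 mM EDTA, 0.05% BSA. Fluorescence (ex 355/em 460 nm) read after 8 h at RT; IC50 by non-linear regression of % remaining activity.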

pIC50: −log10 of the molar value. Bounds are passed on as bounds.

`CC1(c2ccn(C(F)F)n2)CC(C(=O)Nc2cnc(-c3cccnn3)c(C(F)(F)F)c2)c2cnc3cc(F)nn3c21` (single isomer, unassigned) [Example 163]: the pIC50 was not above 6.00. With `CC(F)(F)n1ccc([C@@]2(C)C[C@H](C(=O)Nc3cnc(-c4ncccn4)c(C(F)(F)F)c3)c3cnc4cc(F)nn4c32)n1` (single isomer, unassigned) [Example 164, (trans)-8-(1-(1,1-difluoroethyl)-1H-pyrazol-3-yl)-2-fluoro-8-methyl-N-(6-(pyrimidin-2-yl)-5-(trifluoromethyl)pyridin-3-yl)-7,8-dihydro-6H-cyclopenta[e]pyrazolo[1,5-a]pyrimidine-6-carboxamide], the negative logarithm of the IC50 (pIC50) is more than 8.00. With `CC(F)(F)n1ccc([C@]2(C)C[C@@H](C(=O)Nc3cnc(-c4ncccn4)c(C(F)(F)F)c3)c3cnc4cc(F)nn4c32)n1` (single isomer, unassigned) [Example 165, (trans)-8-(1-(1,1-difluoroethyl)-1H-pyrazol-3-yl)-2-fluoro-8-methyl-N-(6-(pyrimidin-2-yl)-5-(trifluoromethyl)pyridin-3-yl)-7,8-dihydro-6H-cyclopenta[e]pyrazolo[1,5-a]pyrimidine-6-carboxamide], the negative-log IC50 (pIC50) was not above 6.00.

On to `CC(F)(F)n1ccc([C@]2(C)C[C@H](C(=O)Nc3cnc(-c4ncccn4)c(C(F)(F)F)c3)c3cnc4cc(F)nn4c32)n1` (single isomer, unassigned) [Example 166, (cis)-8-(1-(1,1-difluoroethyl)-1H-pyrazol-3-yl)-2-fluoro-8-methyl-N-(6-(pyrimidin-2-yl)-5-(trifluoromethyl)pyridin-3-yl)-7,8-dihydro-6H-cyclopenta[e]pyrazolo[1,5-a]pyrimidine-6-carboxamide], for which the pIC50 was 6.00 to 7.00. The molecule `CC(F)(F)n1ccc([C@@]2(C)C[C@@H](C(=O)Nc3cnc(-c4ncccn4)c(C(F)(F)F)c3)c3cnc4cc(F)nn4c32)n1` (single isomer, unassigned) [Example 167, (cis)-8-(1-(1,1-difluoroethyl)-1H-pyrazol-3-yl)-2-fluoro-8-methyl-N-(6-(pyrimidin-2-yl)-5-(trifluoromethyl)pyridin-3-yl)-7,8-dihydro-6H-cyclopenta[e]pyrazolo[1,5-a]pyrimidine-6-carboxamide] showed a negative logarithm of the IC50 (pIC50) of 6.00 to 7.00. Turning to `CC(F)(F)n1ccc([C@@]2(C)C[C@H](C(=O)Nc3cnc(-c4ncccn4)c(Cl)c3)c3cnc4cc(F)nn4c32)n1` (single isomer, unassigned) [Example 168], the pIC50 was 7.00 to 8.00.

On to `CC(F)(F)n1ccc([C@]2(C)C[C@@H](C(=O)Nc3cnc(-c4ncccn4)c(Cl)c3)c3cnc4cc(F)nn4c32)n1` (single isomer, unassigned) [Example 169], for which the pIC50 is not above 6.00. The same measure for `C[C@]1(c2ccn(C(F)F)n2)C[C@H](C(=O)Nc2cnc(-c3ncccn3)c(C(F)(F)F)c2)c2cnc3cc(Cl)nn3c21` (single isomer, unassigned) [Example 171]: more than 8.00; for `C[C@@]1(c2ccn(C(F)F)n2)C[C@@H](C(=O)Nc2cnc(-c3ncccn3)c(C(F)(F)F)c2)c2cnc3cc(Cl)nn3c21` (single isomer, unassigned) [Example 172]: not above 6.00. `C[C@@]1(c2ccn(C(F)F)n2)C[C@H](C(=O)Nc2cnc(-c3ncccn3)c(C(F)(F)F)c2)c2cnc3cc(Cl)nn3c21` (single isomer, unassigned) [Example 173] gave a pIC50 of 7.00 to 8.00.

`C[C@]1(c2ccn(C(F)F)n2)C[C@@H](C(=O)Nc2cnc(-c3ncccn3)c(C(F)(F)F)c2)c2cnc3cc(Cl)nn3c21` (single isomer, unassigned) [Example 174]: the negative logarithm of the IC50 (pIC50) was 6.00 to 7.00. On to `C[C@]1(c2cn(C(F)F)nn2)C[C@H](C(=O)Nc2cnc(-n3nccn3)c(Cl)c2)c2cnc3cc(F)nn3c21` (single isomer, unassigned) [Example 175], for which the pIC50 was 7.00 to 8.00. In the case of `C[C@@]1(c2cn(C(F)F)nn2)C[C@@H](C(=O)Nc2cnc(-n3nccn3)c(Cl)c2)c2cnc3cc(F)nn3c21` (single isomer, unassigned) [Example 176], the negative logarithm of the IC50 (pIC50) is not above 6.00.

The molecule `C[C@]1(c2cnn(C(F)F)n2)C[C@H](C(=O)Nc2cnc(-n3nccn3)c(Cl)c2)c2cnc3cc(F)nn3c21` (single isomer, unassigned) [Example 177] gave a pIC50 of more than 8.00.

The molecule `C[C@@]1(c2cnn(C(F)F)n2)C[C@@H](C(=O)Nc2cnc(-n3nccn3)c(Cl)c2)c2cnc3cc(F)nn3c21` (single isomer, unassigned) [Example 178] showed a negative logarithm of the IC50 (pIC50) of 6.00 to 7.00. The same measure for `COc1cc(NC(=O)[C@H]2C[C@](C)(c3ccn(C(F)F)n3)c3c2cnc2cc(F)nn32)cnc1-c1ncccn1` (single isomer, unassigned) [Example 179]: not above 6.00; for `COc1cc(NC(=O)[C@@H]2C[C@@](C)(c3ccn(C(F)F)n3)c3c2cnc2cc(F)nn32)cnc1-c1ncccn1` (single isomer, unassigned) [Example 180]: 6.00 to 7.00.

In turn, `COc1cc(NC(=O)[C@H]2C[C@@](C)(c3ccn(C(F)F)n3)c3c2cnc2cc(F)nn32)cnc1-c1ncccn1` (single isomer, unassigned) [Example 181] gave a pIC50 not above 6.00. The molecule `COc1cc(NC(=O)[C@@H]2C[C@](C)(c3ccn(C(F)F)n3)c3c2cnc2cc(F)nn32)cnc1-c1ncccn1` (single isomer, unassigned) [Example 182] gave a negative-log IC50 (pIC50) not above 6.00. In turn, `Cc1cc(NC(=O)C2CC(C)(c3ccn(C(F)F)n3)c3c2cnc2cc(F)nn32)cnc1-c1ncccn1` (single isomer, unassigned) [Example 183] gave a negative logarithm of the IC50 (pIC50) of 7.00 to 8.00. `Cc1cc(NC(=O)C2CC(C)(c3ccn(C(F)F)n3)c3c2cnc2cc(F)nn32)cnc1-c1ncccn1` (single isomer, unassigned) [Example 184] showed a pIC50 not above 6.00.

`C[C@]1(c2ccn(C(F)F)n2)C[C@H](C(=O)Nc2ccc(-c3ncccn3)c(C(F)(F)F)c2)c2cnc3cc(F)nn3c21` (single isomer, unassigned) [Example 185] had a pIC50 of more than 8.00.

The molecule `C[C@@]1(c2ccn(C(F)F)n2)C[C@@H](C(=O)Nc2ccc(-c3ncccn3)c(C(F)(F)F)c2)c2cnc3cc(F)nn3c21` (single isomer, unassigned) [Example 186] showed a pIC50 not above 6.00. Under `C[C@@]1(c2ccn(C(F)F)n2)C[C@H](C(=O)Nc2ccc(-c3ncccn3)c(C(F)(F)F)c2)c2cnc3cc(F)nn3c21` (single isomer, unassigned) [Example 187] stands 7.00 to 8.00; under `C[C@]1(c2ccn(C(F)F)n2)C[C@@H](C(=O)Nc2ccc(-c3ncccn3)c(C(F)(F)F)c2)c2cnc3cc(F)nn3c21` (single isomer, unassigned) [Example 188], 6.00 to 7.00; under `C[C@]1(c2ccn(C(F)F)n2)C[C@H](C(=O)Nc2ccc(-c3ncccn3)c(Cl)c2)c2cnc3cc(F)nn3c21` (single isomer, unassigned) [Example 189], 7.00 to 8.00. The same measure for `C[C@@]1(c2ccn(C(F)F)n2)C[C@@H](C(=O)Nc2ccc(-c3ncccn3)c(Cl)c2)c2cnc3cc(F)nn3c21` (single isomer, unassigned) [Example 190]: not above 6.00. Under `C[C@@]1(c2ccn(C(F)F)n2)C[C@H](C(=O)Nc2ccc(-c3ncccn3)c(Cl)c2)c2cnc3cc(F)nn3c21` (single isomer, unassigned) [Example 191] stands not above 6.00; under `C[C@]1(c2ccn(C(F)F)n2)C[C@@H](C(=O)Nc2ccc(-c3ncccn3)c(Cl)c2)c2cnc3cc(F)nn3c21` (single isomer, unassigned) [Example 192], 6.00 to 7.00; under `CC1(c2ccn(C(F)F)n2)CC(C(=O)Nc2cnc(-c3ncccn3)c(C(F)F)c2)c2cnc3cc(F)nn3c21` (single isomer, unassigned) [Example 193], 7.00 to 8.00. The molecule `CC1(c2ccn(C(F)F)n2)CC(C(=O)Nc2cnc(-c3ncccn3)c(C(F)F)c2)c2cnc3cc(F)nn3c21` (single isomer, unassigned) [Example 194] gave a negative-log IC50 (pIC50) not above 6.00.

For the molecule `C[C@]1(c2cnn(C(F)F)c2)C[C@H](C(=O)Nc2cnc(-c3ncc(F)cn3)c(C(F)(F)F)c2)c2cnc3cc(F)nn3c21` [Example 132, (6S,8R)-8-(1-(difluoromethyl)-1H-pyrazol-4-yl)-2-fluoro-N-(6-(5-fluoropyrimidin-2-yl)-5-(trifluoromethyl)pyridin-3-yl)-8-methyl-7,8-dihydro-6H-cyclopenta[e]pyrazolo[1,5-a]pyrimidine-6-carboxamide], the negative-log IC50 (pIC50) is 7.00 to 8.00.
